Values quoted from earlier work, collected in patent publication US20010039262A1, “Methods and compositions for the treatment of cardiac indications” (priority 2000, published 2001).

Experiments:
patients with severe HF = settings: spironolactone administered along with captopril and furosemide
[1] = system: patients with stable Congestive Heart Failure (NYHA class II-IV)
[2] = heart failure patients treated with spironolactone

For `CC(=O)S[C@@H]1CC2=CC(=O)CC[C@]2(C)[C@H]2CC[C@@]3(C)[C@@H](CC[C@@]34CCC(=O)O4)[C@H]12` [spironolactone], the “reduction of morbidity and mortality” value (patients with severe HF) is given as 27%, the morbidity ([1]; 31 patients with stable CHF (NYHA class II-IV), spironolactone vs placebo in addition to diuretics and ACE inhibitor) is given as “lowered” and the “early morning rise in heart rate” value [1, 2] is given as “reduced”. For the same molecule, the heart rate variability [1, 2] was “improved”, the vascular collagen turnover [1, 2] was “reduced” and the “reduction in myocardial fibrosis activity” value ([1]; spironolactone 50-100 mg/day in addition to diuretics and ACE inhibitor, 8 weeks of active therapy) was “approximately 20%”.
